Data from US7052850B2, “Isolated human EDG-4 receptor” (priority 1997, dated 2006).
Entries after “also recorded” stand apart in the source; their conditions may differ.

Test system: pcDNA3-transfected 293-EBNA cells
Test: NF-κB luciferase reporter in 293-EBNA cells, empty vector pcDNA3
Type: cell-based
Conditions: empty vector control; S1P, SPC 1-10 μM, LPA 10 μM, 20% FBS
Experimental: • 1) 150 mm plates of 293-EBNA obtained from Invitrogen (Cat. R620-07) with a confluency of 18 80% were used for transfection. • 2) 6.6 μg NF-κB-tk-p4Luc reporter DNA and 6.6 μg of pC3-redg4 (expressing rat EDG-4), or pcDNA3 DNA was diluted in 500 μl OPTI-MEM (Gibco; Cat. 31985-062) • 3) 96.8 μl Lipofectamine (Gibco; Cat. 18324-020) was diluted in 500 μl of OPTI-MEM. • 4) The 2 solutions were mixed gently and the tube was incubated for 30 min at room temperature. • 5) The 293-EBNA plates were washed once with PBS and 13 ml OPTI-MEM was added to each plate, • 6) 6 ml OPTI-UMM was added to each transfection tube and this was added to a plate of 293EBNA cells. The plates were left for 4 hrs at 37° C. in a 5% CO2 incubator. • 7) After 4 his, the media was removed and replaced with frest 10% FBS media. Day 2: • 1) Transfected cells were washed, typsinized with 1× tryspin, resuspended in 10 ml media and counted. • 2) 0.02×10 ^6 cells were plated per well of a 96-well Blackview plate coated with polyD-lysine. No cells were plated in the outside wells of the 96-well plate. Two 96-well plates were seeded for each transfection. Day 3: • 1) Cells were washed with PBS and 140 μl serum-free media (SFM) added to each well. Plates were incubated in 37° C. incubator for 6 hrs. • 2) After 6 hrs, media was removed and cells treated with compounds diluted in 0.5% FBS media (140 μl added to each well). The Following Treatments Were Used: pcDNA3:
Day 4 Luciferase Assay • 1) Luclite kit (Packard; Cat. 6016911) was used for luciferase assay. All reagents were brought to room temperature before use. • 2) Supernatant was transferred to a new 96-well plate and stored at −20 C. for […] IL-8 measurement. • 3) 50 μl 0.5 M HEPES pH 7.8 buffer (1 mM MgCl21 mM CaCl2) was addeded to all wells of 96-well plate. […] A stop plate was placed on top of the blackview plate to keep it in the dark. • 6) Plates were incubated at room temperature for 30 min. • 7) After incubation, plates were counted in a 12 detector Packard Top Count on a program without dark delay. […]

Compound	NF-κB reporter response in pcDNA3-transfected cells
CCCCCCCCCCCCC/C=C/[C@@H](O)[C@@H](N)COP(=O)(O)O [S1P, sphingosine 1-phosphate]	No increase in luciferase activity; also recorded: No response; also recorded: No such induction
CCCCCCCCCCCCC/C=C/[C@@H](O)[C@@H](N)COP(=O)([O-])OCC[N+](C)(C)C [SPC, sphingosylphosphorylcholine]	No response; also recorded: No such induction
lysophosphatidic acid [LPA]	no response
